Experiments:
Assay type in all cases: in vivo
[1] = test system: redroot pigweed (Amaranthus retroflexus, AMARE); experiment: Pre-emerge test, greenhouse herbicide activity screening; settings: pre-emerge, 14 days after application, scale 0-100
In short: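 Sandy loam pots; pre-emerge: sown 1 d pre-spray, surface-watered after, then bottom-watered. Post-emerge: sown 8–21 d before, 2–3 leaf stage, + 0.25% v/v NIS, bottom-watered. Acetone, 187 l/ha track spray, 15–1000 g ai/ha. 0–100 injury score, day 14.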

[2] = test system: upland rice (Oryza sp., var. Tebonnet, RICE); experiment: Post-emerge test, crop safety; settings: post-emerge, 14 days after application, rating scale 0-100
In short: (§1)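 Compounds in acetone were track-sprayed at 187 l/ha, 15–1000 g ai/ha, onto sandy loam pots. Pre-emerge seeds were sown one day before spraying, with surface watering afterwards. Post-emerge plants were at the 2–3 leaf stage and sprayed with 0.25% v/v non-ionic surfactant. Injury was rated 0–100 at 14 days.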

[3] = test system: field corn (Zea mays L., var. Dekalb 535, CORN); experiment: Post-emerge test, crop safety; settings: post-emerge, 14 days after application, rating scale 0-100
In short: as §1

[4] = test system: barnyardgrass (Echinochloa crus-galli, ECHCG); experiment: Pre-emerge test, greenhouse herbicide activity screening; settings: pre-emerge, 14 days after application, scale 0-100
In short: as §1

[5] = test system: johnsongrass (Sorghum halepense, SORHA); experiment: as above; settings: pre-emerge, 14 days after application, scale 0-100
In short: as §1

[6] = test system: sicklepod (Cassia obtusifolia, CASOB); experiment: as above; settings: pre-emerge, 14 days after application, scale 0-100
In short: as §1

[7] = test system: velvetleaf (Abutilon theophrasti, ABUTH); experiment: as above; settings: pre-emerge, 14 days after application, scale 0-100
In short: as §1

[8] = test system: lambsquarters (Chenopodium album, CHEAL); experiment: as above; settings: pre-emerge, 14 days after application, scale 0-100
In short: as §1

[9] = test system: green foxtail (Setaria viridis, SETVI); experiment: as above; settings: pre-emerge, 14 days after application, scale 0-100
In short: as §1

[10] = test system: large crabgrass (Digitaria sanguinalis, DIGSA); experiment: as above; settings: pre-emerge, 14 days after application, scale 0-100
In short: as §1

[11] = test system: ivyleaf morningglory (Ipomoea hederacea, IPOHE); experiment: as above; settings: pre-emerge, 14 days after application, scale 0-100
In short: as §1

[12] = test system: barnyardgrass (Echinochloa crus-galli, ECHCG); experiment: Post-emerge test, greenhouse herbicide activity screening; settings: post-emerge, 14 days after application, rating scale 0-100
In short: (§2)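 Applied at 15–1000 g ai/ha from acetone in 187 l/ha spray volume. Post-emergence applications included 0.25% v/v non-ionic surfactant and reached plants sown 8–21 days before. Pre-emergence applications were incorporated by surface watering. Efficacy or crop damage was rated on a 0–100 scale after 14 days.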

[13] = test system: johnsongrass (Sorghum halepense, SORHA); experiment: as above; settings: post-emerge, 14 days after application, rating scale 0-100
In short: as §2

[14] = test system: sicklepod (Cassia obtusifolia, CASOB); experiment: as above; settings: post-emerge, 14 days after application, rating scale 0-100
In short: as §2

[15] = test system: velvetleaf (Abutilon theophrasti, ABUTH); experiment: as above; settings: post-emerge, 14 days after application, rating scale 0-100
In short: as §2

[16] = test system: lambsquarters (Chenopodium album, CHEAL); experiment: as above; settings: post-emerge, 14 days after application, rating scale 0-100
In short: as §2

[17] = test system: green foxtail (Setaria viridis, SETVI); experiment: as above; settings: post-emerge, 14 days after application, rating scale 0-100
In short: as §2

[18] = test system: redroot pigweed (Amaranthus retroflexus, AMARE); experiment: as above; settings: post-emerge, 14 days after application, rating scale 0-100
In short: as §2

[19] = test system: large crabgrass (Digitaria sanguinalis, DIGSA); experiment: as above; settings: post-emerge, 14 days after application, rating scale 0-100
In short: as §2

[20] = test system: common ragweed (Ambrosia artemisizfolia L., AMBEL); experiment: as above; settings: post-emerge, 14 days after application, rating scale 0-100
In short: as §2

[21] = test system: ivyleaf morningglory (Ipomoea hederacea, IPOHE); experiment: as above; settings: post-emerge, 14 days after application, rating scale 0-100
In short: as §2

[22] = test system: upland rice (Oryza sp., var. Tebonnet, RICE); experiment: Pre-emerge test, crop safety; settings: pre-emerge, 14 days after application, scale 0-100
In short: (§3)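 Fourteen days after spraying, crop and weed injury was graded visually from 0, no effect, to 100, every plant dead. Test substances were dissolved in acetone and applied at 15–1000 g ai/ha with a flat-fan nozzle. Application was either pre-emergence, one day after sowing, or post-emergence at the 2–3 leaf stage.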

[23] = test system: field corn (Zea mays L., var. Dekalb 535, CORN); experiment: Pre-emerge test, crop safety; settings: pre-emerge, 14 days after application, scale 0-100
In short: as §3

SMILES: COc1c(Cl)cc(F)c(-n2c(=O)cc(C(F)(F)F)n(C)c2=O)c1NC(=O)c1ccc2cccc(F)c2c1 [2-161]
- phytotoxicity rating AMARE ([1]; 63 g ai/ha): 100
- phytotoxicity rating AMARE ([1]; 250 g ai/ha): 100
- RICE phytotoxicity rating (crop damage) ([2]; 63 g ai/ha): 20
- RICE phytotoxicity rating (crop damage) ([2]; 250 g ai/ha): 70
- CORN phytotoxicity rating (crop damage) ([3]; 63 g ai/ha): 0
- CORN phytotoxicity rating (crop damage) ([3]; 250 g ai/ha): 20
- phytotoxicity rating ECHCG ([4]; 63 g ai/ha): 90
- phytotoxicity rating ECHCG ([4]; 250 g ai/ha): 99
- phytotoxicity rating SORHA ([5]; 63 g ai/ha): 0
- phytotoxicity rating SORHA ([5]; 250 g ai/ha): 30
- phytotoxicity rating CASOB ([6]; 63 g ai/ha): 0
- phytotoxicity rating CASOB ([6]; 250 g ai/ha): 50
- phytotoxicity rating ABUTH ([7]; 63 g ai/ha): 100
- phytotoxicity rating ABUTH ([7]; 250 g ai/ha): 100
- phytotoxicity rating CHEAL ([8]; 63 g ai/ha): 100
- phytotoxicity rating CHEAL ([8]; 250 g ai/ha): 100
- phytotoxicity rating SETVI ([9]; 63 g ai/ha): 100
- phytotoxicity rating SETVI ([9]; 250 g ai/ha): 100
- phytotoxicity rating DIGSA ([10]; 63 g ai/ha): 95
- phytotoxicity rating DIGSA ([10]; 250 g ai/ha): 100
- phytotoxicity rating IPOHE ([11]; 63 g ai/ha): 20
- phytotoxicity rating IPOHE ([11]; 250 g ai/ha): 90
- ECHCG phytotoxicity rating ([12]; 63 g ai/ha): 20
- ECHCG phytotoxicity rating ([12]; 250 g ai/ha): 60
- SORHA phytotoxicity rating ([13]; 63 g ai/ha): 0
- SORHA phytotoxicity rating ([13]; 250 g ai/ha): 30
- CASOB phytotoxicity rating ([14]; 63 g ai/ha): 100
- CASOB phytotoxicity rating ([14]; 250 g ai/ha): 100
- ABUTH phytotoxicity rating ([15]; 63 g ai/ha): 100
- ABUTH phytotoxicity rating ([15]; 250 g ai/ha): 100
- CHEAL phytotoxicity rating ([16]; 63 g ai/ha): 100
- CHEAL phytotoxicity rating ([16]; 250 g ai/ha): 100
- SETVI phytotoxicity rating ([17]; 63 g ai/ha): 0
- SETVI phytotoxicity rating ([17]; 250 g ai/ha): 20
- AMARE phytotoxicity rating ([18]; 63 g ai/ha): 100
- AMARE phytotoxicity rating ([18]; 250 g ai/ha): 100
- DIGSA phytotoxicity rating ([19]; 63 g ai/ha): 0
- DIGSA phytotoxicity rating ([19]; 250 g ai/ha): 50
- AMBEL phytotoxicity rating ([20]; 63 g ai/ha): 30
- AMBEL phytotoxicity rating ([20]; 250 g ai/ha): 100
- IPOHE phytotoxicity rating ([21]; 63 g ai/ha): 100
- IPOHE phytotoxicity rating ([21]; 250 g ai/ha): 100
- phytotoxicity rating RICE (crop damage) ([22]; 63 g ai/ha): 0
- phytotoxicity rating RICE (crop damage) ([22]; 250 g ai/ha): 40
- phytotoxicity rating CORN (crop damage) ([23]; 63 g ai/ha): 0
- phytotoxicity rating CORN (crop damage) ([23]; 250 g ai/ha): 0

— patent US6355799B1, “Substituted benzene compounds, process for their preparation, and herbicidal and defoliant compositions containing them” (ISK Americas Incorporated, priority 1997, dated 2002)
